Experimental data reported in US8536201B2, “Pesticidal arylpyrrolidines” (Bayer Intellectual Property GmbH, priority 2009, dated 2013).

Key:
Format in all cases: in vivo
Tetranychus urticae = assay: Two-spotted spider mite Tetranychus urticae spray test on kidney bean; details: adult mites, after 7 days
Procedure: BIOLOGICAL TEST EXAMPLE 2
Two-Spotted Spider Mite Tetranychus urticae
50 to 100 adult mites of Tetranychus urticae were inoculated to leaves of kidney bean at two-leaf stage planted in a pot of 6 cm in diameter. After one day, test solution at the appropriate concentration was sprayed thereon in a sufficient amount using a spray gun. After the spraying, the plant pot was placed inside a greenhouse, and after 7 days, the acaricidal activity was calculated. An acaricidal activity of 100% means that all mites were killed, an acaricidal activity of 0% means that no mite was killed.

Spodoptera litura [1] = assay: Tobacco cutworm (Spodoptera litura) larvae, sweet potato leaf dip test; details: third instar larvae, treated sweet potato leaves, after 7 days
Procedure: Unless not mentioned otherwise, the test solutions were prepared as follows:
Solvent: dimethyl formamide, 3 parts by weight
Emulsifier: polyoxyethylene alkyl phenyl ether, 1 part by weight
To prepare the test solution, 1 part by weight of an active compound is mixed with the above-mentioned amount of solvent containing the above-mentioned amount of emulsifier, and the mixture is diluted with water to the desired concentration.
BIOLOGICAL TEST EXAMPLE 1.1
Tobacco Cutworm (Spodoptera litura) Larvae
Leaves of sweet potato were immersed in the test solution at the appropriate concentration, and the leaves were dried in air. The leaves were then placed in a petri dish having a diameter of 9 cm, and ten Spodoptera litura at third instar larvae were released therein. The petri dishes were placed in a temperature-controlled chamber at 25° C. After 2 days and 4 days more sweet potato leaves were added. After 7 days, the number of dead larvae was counted to calculate the insecticidal activity. An insecticidal activity of 100% means that all larvae were killed, whereas an insecticidal activity of 0% means that no larva was killed. In the current test, the results of two petri dishes for each treatment were averaged.

Musca domestica = Musca domestica test; details: for activity (mortality in %): 100 ppm, adults, sugar/compound sponge, after 2 days
Procedure: BIOLOGICAL TEST EXAMPLE 9
(§1) Solvent: Dimethyl Sulfoxide
To produce a suitable preparation of active compound, 10 mg of active compound are dissolved in 0.5 ml solvent, and the concentrate is diluted with water to the desired concentration. Prior to the assay, a piece of kitchen sponge is soaked with a mixture of sugar and compound solution and placed into a container. 10 adults (Musca domestica) are placed into the container and closed with a perforated lid.
After 2 days mortality in % is determined. 100% means that all the flies have been killed; 0% means that none of the flies have been killed.

Spodoptera litura [2] = assay: Tobacco cutworm (Spodoptera litura) larvae using artificial diet; details: 20 ppm, 3rd-instar larvae
Procedure: BIOLOGICAL TEST EXAMPLE 1.2
Tobacco Cutworm (Spodoptera litura) Larvae Using Artificial Diet
2.3 g of artificial diet powder is put into a PET cup (7.5 cm diameter, 4 cm depth). The powder was leveled to make a layer in the bottom of the cup. 5 ml of a chemical solution is poured onto the powder and spread uniformly. The cup with treated diet powder is placed quiet to let the diet jell. Into each testing cup five 3rd-instar larvae were released. The testing cup is closed with the lid and placed in a temperature-controlled room at 25° C. and 50-60% R.H., 16L8D lighting conditions.
The mortality in % was determined according to the following criteria:
1 larva dead: 20% Efficacy
5 larvae dead: 100% Efficacy

Aulacophora femoralis = assay: Cucurbit leaf beetle (Aulacophora femoralis) cucumber leaf dip test; details: second instar larvae, treated cucumber leaves, after 7 days
Procedure: BIOLOGICAL TEST EXAMPLE 3
Cucurbit Leaf Beetle (Aulacophora femoralis)
Leaves of cucumber were immersed in the test solution at the appropriate concentration, and the leaves were dried in air. The leaves were then put in a plastic cup containing sterilized black soil and five Aulacophora femoralis at second instar larvae were released in the cup. The cups were placed in a temperature-controlled chamber at 25° C. After 7 days, the number of dead larvae was counted, and thus the insecticidal activity was calculated. An insecticidal activity of 100% means that all larvae were killed, whereas an insecticidal activity of 0% means that no larva was killed.

Boophilus microplus = Boophilus microplus (dip)
Procedure: BIOLOGICAL TEST EXAMPLE 5
Boophilus microplus (Dip)
as §1
To produce a suitable preparation of active compound, 10 mg of active compound are dissolved in 0.5 ml solvent, and the concentrate is diluted with water to the desired concentration. Eight to ten adult engorged female Boophilus microplus ticks are placed in perforated plastic beakers and immersed in aqueous compound solution for one minute. Ticks are transferred to a filter paper in a plastic tray. Egg deposition of fertile eggs is monitored after. After 7 days mortality in % is determined. 100% means that all the ticks have been killed; 0% means that none of the ticks have been killed.

Lucilia cuprina = Lucilia cuprina (48 hrs) larval test; details: read-out: activity (larval mortality in %)
Procedure: BIOLOGICAL TEST EXAMPLE 8
Species: Lucilia cuprina 1st Instar Larvae (Age 24 Hrs)
as §1
10 mg active compound are dissolved in 0.5 ml dimethyl sulfoxide. Serial dilutions are made to obtain the desired rates. Approximately 20 Lucilia cuprina 1st instar larvae are transferred into a test tube containing 1 cm^3 of minced horse meat and 0.5 ml aqueous dilution of test compound.
After 2 days larval mortality in % is recorded. 100% efficacy=all larvae are killed, […].

Ctenocephalides felis = Ctenocephalides felis test (CTECFE), blood feeding; details: Ctenocephalides felis, in Bos taurus, 48 h, read-out: activity (mortality in %)
Procedure: BIOLOGICAL TEST EXAMPLE 7
Ctenocephalides felis—Test (CTECFE)
as §1
To produce a suitable preparation of active compound, 10 mg of active compound are dissolved in 0.5 ml solvent, and the concentrate is diluted with cattle blood to the desired concentration. Approximately 20 adult unfed (Ctenocephalides felis) are placed in flea chambers. The blood chamber, sealed with parafilm on the bottom, are filled with cattle blood supplied with compound solution and placed on top of the flea chamber, so that the fleas are able to suck the blood. The blood chamber is heated to 37° C. whereas the flea chamber is kept at room temperature.
After 2 days mortality in % is determined. 100% means that all the fleas have been killed; 0% means that none of the fleas have been killed.

Compound | insecticidal activity (Tetranychus urticae; 20 ppm) | insecticidal activity (Spodoptera litura [1]; 20 ppm) | activity (mortality in %) (Musca domestica) | insecticidal activity (Spodoptera litura [2]) | insecticidal activity (Aulacophora femoralis; 20 ppm) | insecticidal activity (Tetranychus urticae; 4 ppm) | mortality at 100 ppm (Boophilus microplus; Rhipicephalus microplus, 168 h, read-out: activity (mortality in %)) | insecticidal activity (Spodoptera litura [1]; 0.8 ppm) | mortality at 100 ppm (Musca domestica; Musca domestica, 48 h, read-out: activity (mortality in %)) | mortality at 100 ppm (Lucilia cuprina) | mortality at 100 ppm (Ctenocephalides felis) | insecticidal activity (Aulacophora femoralis; 4 ppm) | activity (mortality in %) (Boophilus microplus; 100 ppm, adult engorged females immersed one minute, after 7 days) | insecticidal activity (Aulacophora femoralis; 100 ppm)
CC(NC(=O)C1CC1)c1ccc(N2CCC(c3cc(Cl)cc(Cl)c3)(C(F)(F)F)C2)cc1 (racemic) [Compound 3] | 100% | 100% | 90% | 100% | 100% | – | – | – | – | – | – | – | – | –
CC(NC(=O)C1CC1)c1ccc(N2CCC(c3cc(Cl)c(Cl)c(Cl)c3)(C(F)(F)F)C2)cc1 (racemic) [Compound 8] | 100% | 100% | 90% | 100% | 100% | – | – | – | – | – | – | – | – | –
CCC(=O)NC(C)c1ccc(N2CCC(c3cc(C(F)(F)F)cc(C(F)(F)F)c3)(C(F)(F)F)C2)cc1 (racemic) [Compound 10] | 100% | 100% | 90% | 100% | 100% | – | – | – | – | – | – | – | – | –
CC(=O)N[C@@H](C)c1ccc(N2CCC(c3cc(C(F)(F)F)cc(C(F)(F)F)c3)(C(F)(F)F)C2)cc1 (stereo partly drawn) [Compound 9-b] | – | 100% | 90% | 100% | 100% | – | – | – | – | – | – | – | – | –
C[C@H](NC(=O)C1CC1)c1ccc(N2CCC(c3cc(C(F)(F)F)cc(C(F)(F)F)c3)(C(F)(F)F)C2)cc1 (stereo partly drawn) [Compound 11-b, N-[(1S)-1-(4-{3-[3,5-bis(trifluoromethyl)phenyl]-3-(trifluoromethyl)pyrrolidin-1-yl}phenyl)ethyl]cyclopropanecarboxamide] | 100% | 100% | – | – | 100% | 100% | 100% | 100% | 100% | 100% | 100% | 100% | – | –
COCCC(=O)N[C@@H](C)c1ccc(N2CCC(c3cc(C(F)(F)F)cc(C(F)(F)F)c3)(C(F)(F)F)C2)cc1 (stereo partly drawn) [Compound 15-b] | 100% | – | – | 100% | – | – | – | – | – | – | – | – | 80% | 100%
